# Target: CREBBP (Homo sapiens (Human), UniProt Q92793)
# Test: In vitro enzyme inhibition assay - CREBBP inhibition (AlphaScreen, biotinylated H4-tetraacetyl peptide)
# Format: binding
# Details: Table 28; AlphaScreen, H4-tetraacetyl peptide
# Procedure: Determination of the IC50 for the CREBBP inhibitors disclosed herein was performed as follows: CREBBP was cloned and expressed in E. Coli as His-tag protein and purified by Nickel affinity and gel-filtration chromatography. […] CREBBP binding and inhibition was assessed by monitoring the interaction of biotinylated H4-tetraacetyl peptide (AnaSpec, H4K5/8/12/16(Ac), biotin-labeled) with the target using the AlphaScreen technology (Perkin Elmer). In a 384-well ProxiPlate CREBBP (50 nM final) was combined with peptide (20 nM final) in 50 mM HEPES (pH 7.3), 10 mM NaCl, 0.25 mM TCEP, 0.1% (w/v) BSA, and 0.005% (w/v) Brij-35 either in the presence of DMSO (final 0.4% DMSO) or compound dilution series in DMSO. After 20-minute incubation at room temperature, Alpha streptavidin donor beads and Nickel Chelate acceptor beads were added to a final concentration of 5 μg/mL. After two hours of equilibration, plates were read on an Envision instrument and the IC50 was calculated using a four parameter non-linear curve fit.
# The ability of the compounds disclosed herein to inhibit CBP activity was quantified and the respective IC50 value was determined.
# CREBBP, sequence (Q92793 1081-1197): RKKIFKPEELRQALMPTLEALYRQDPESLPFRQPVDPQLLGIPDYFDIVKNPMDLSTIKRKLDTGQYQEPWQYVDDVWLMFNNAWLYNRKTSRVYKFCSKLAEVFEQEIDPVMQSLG
row,IC50 [nM],Compound
1,< 500,"COC(C)CS(=O)(=O)Nc1cc(-c2cc(C)c(=O)n(C)c2)nc(Oc2c(C)cccc2C)n1 (stereo not shown) [Example 85, N-(6-(1,5-dimethyl-6-oxo-1,6-dihydropyridin-3-yl)-2-(2,6-dimethylphenoxy)pyrimidin-4-yl)-2-methoxypropane-1-sulfonamide]"
2,< 500,"CCCCS(=O)(=O)Nc1cc(-c2cc(F)c(=O)n(C)c2)nc(Oc2c(C)cccc2C)n1 [Example 86, N-(2-(2,6-dimethylphenoxy)-6-(5-fluoro-1-methyl-6-oxo-1,6-dihydropyridin-3-yl)pyrimidin-4-yl)butane-1-sulfonamide]"
3,< 500,"CCCCS(=O)(=O)Nc1cc(-c2cc(C)c(=O)n(C)c2)nc(Oc2c(C)nn(C)c2C)n1 [Example 88, N-(6-(1,5-dimethyl-6-oxo-1,6-dihydropyridin-3-yl)-2-((1,3,5-trimethyl-1H-pyrazol-4-yl)oxy)pyrimidin-4-yl)butane-1-sulfonamide]"
4,< 500,"CCCCS(=O)(=O)Nc1cc(-c2cn(C)c(=O)cc2C)nc(Oc2c(C)cccc2C)n1 [Example 89, N-(6-(1,4-dimethyl-6-oxo-1,6-dihydropyridin-3-yl)-2-(2,6-dimethylphenoxy)pyrimidin-4-yl)butane-1-sulfonamide]"
5,< 500,"Cc1cc(-c2cc(NS(=O)(=O)C(C)C)cc(Oc3ccc(F)cc3F)n2)cn(C)c1=O [Example 90, N-(6-(2,4-difluorophenoxy)-1′,5′-dimethyl-6′-oxo-1′,6′-dihydro-[2,3′-bipyridin]-4-yl)propane-2-sulfonamide]"
6,< 500,"Cc1cc(-c2cc(NS(=O)(=O)C(C)C)nc(Nc3ccc(F)cc3F)n2)cn(C)c1=O [Example 91, N-(2-((2,4-difluorophenyl)amino)-6-(1,5-dimethyl-6-oxo-1,6-dihydropyridin-3-yl)pyrimidin-4-yl)propane-2-sulfonamide]"
7,< 500,"CCCS(=O)(=O)Nc1cc(-c2cc(C)c(=O)n(C)c2)cc(Oc2c(C)cccc2C)n1 [Example 92, N-(6′-(2,6-dimethylphenoxy)-1,5-dimethyl-6-oxo-1,6-dihydro-[3,4′-bipyridin]-2′-yl)propane-1-sulfonamide]"
8,500 to 5000,"Cc1cc(-c2cc(NS(=O)(=O)C(C)C)nc(Cc3ccc(F)cc3F)n2)cn(C)c1=O [Example 93, Propane-2-sulfonic acid [2-(2,4-difluoro-benzyl)-6-(1,5-dimethyl-6-oxo-1,6-dihydro-pyridin-3-yl)-pyrimidin-4-yl]-amide]"
9,< 500,"CCS(=O)(=O)Nc1cc(-c2cc(C)c(=O)n(C)c2)nc(Cc2ccc(F)cc2F)n1 [Example 94, Ethanesulfonic acid [2-(2,4-difluoro-benzyl)-6-(1,5-dimethyl-6-oxo-1,6-dihydro-pyridin-3-yl)-pyrimidin-4-yl]-amide]"
10,< 500,"Cc1cc(-c2cc(CS(=O)(=O)C(C)C)nc(Oc3ccc(F)cc3F)n2)cn(C)c1=O [Example 95, 5-[2-(2,4-Difluoro-phenoxy)-6-(propane-2-sulfonylmethyl)-pyrimidin-4-yl]-1,3-dimethyl-1H-pyridin-2-one]"
11,< 500,"CCS(=O)(=O)Cc1cc(-c2cc(C)c(=O)n(C)c2)nc(Oc2ccc(F)cc2F)n1 [Example 96, 5-[2-(2,4-Difluoro-phenoxy)-6-ethanesulfonylmethyl-pyrimidin-4-yl]-1,3-dimethyl-1H-pyridin-2-one]"
12,500 to 5000,"CCCCS(=O)(=O)Nc1cc(-c2cn(C)c(=O)c3ccccc23)nc(Oc2c(C)cccc2C)n1 [Example 97, Butane-1-sulfonic acid [2-(2,6-dimethyl-phenoxy)-6-(2-methyl-1-oxo-1,2-dihydro-isoquinolin-4-yl)-pyrimidin-4-yl]-amide]"

# Continued, molecule first:
row,Compound,IC50 [nM]
1,"CCCCS(=O)(=O)Nc1cc(-c2cc(C)c(=O)n(C)c2)nc(Oc2ccc(F)cc2F)n1 [Example 64, N-(2-(2,4-difluorophenoxy)-6-(1,5-dimethyl-6-oxo-1,6-dihydropyridin-3-yl)pyrimidin-4-yl)butane-1-sulfonamide]",< 500
2,"Cc1cc(-c2cc(NS(=O)(=O)C(C)(C)C)nc(Oc3ccc(F)cc3F)n2)cn(C)c1=O [Example 65, N-(2-(2,4-difluorophenoxy)-6-(1,5-dimethyl-6-oxo-1,6-dihydropyridin-3-yl)pyrimidin-4-yl)-2-methylpropane-2-sulfonamide]",< 500
3,"Cc1cc(F)ccc1Oc1nc(NS(=O)(=O)C(C)C)cc(-c2cc(C)c(=O)n(C)c2)n1 [Example 67, N-(6-(1,5-dimethyl-6-oxo-1,6-dihydropyridin-3-yl)-2-(4-fluoro-2-methylphenoxy)pyrimidin-4-yl)propane-2-sulfonamide]",< 500
4,"COc1ccc(Oc2nc(NS(=O)(=O)C(C)C)cc(-c3cc(C)c(=O)n(C)c3)n2)cc1Cl [Example 68, N-(2-(3-chloro-4-methoxyphenoxy)-6-(1,5-dimethyl-6-oxo-1,6-dihydropyridin-3-yl)pyrimidin-4-yl)propane-2-sulfonamide]",< 500
5,"Cc1cc(-c2cc(NS(=O)(=O)C(C)C)nc(Oc3ccccc3)n2)cn(C)c1=O [Example 69, N-(6-(1,5-dimethyl-6-oxo 1,6-dihydropyridin-3-yl)-2-phenoxypyrimidin-4-yl)propane-2-sulfonamide]",< 500
6,"Cc1cc(-c2cc(NS(=O)(=O)C(C)C)nc(Oc3ccc(F)cc3)n2)cn(C)c1=O [Example 70, N-(6-(1,5-dimethyl-6-oxo-1,6-dihydropyridin-3-yl)-2-(4-fluorophenoxy)pyrimidin-4-yl)propane-2-sulfonamide]",< 500
7,"Cc1cccc(C)c1Oc1nc(NS(=O)(=O)C(C)C)cc(-c2cc(C)c(=O)n(C)c2)n1 [Example 71, N-(6-(1,5-dimethyl-6-oxo-1,6-dihydropyridin-3-yl)-2-(2,6-dimethylphenoxy)pyrimidin-4-yl)propane-2-sulfonamide]",< 500
8,"Cc1cc(-c2cc(N(C)S(=O)(=O)C(C)C)nc(Oc3ccc(F)cc3F)n2)cn(C)c1=O [Example 73, N-(2-(2,4-difluorophenoxy)-6-(1,5-dimethyl-6-oxo-1,6-dihydropyridin-3-yl)pyrimidin-4-yl)-N-methylpropane-2-sulfonamide]",< 500
9,"CCCCS(=O)(=O)Nc1cc(-c2cc(C)c(=O)n(C)c2)nc(Oc2cnn(C)c2)n1 [Example 74, N-(6-(1,5-dimethyl-6-oxo-1,6-dihydropyridin-3-yl)-2-((1-methyl-1H-pyrazol-4-yl)oxy)pyrimidin-4-yl)butane-1-sulfonamide]",< 500
10,"CCCCS(=O)(=O)Nc1cc(-c2cc(C)c(=O)n(C)c2)nc(Oc2cccc3c2ccn3C)n1 [Example 75, N-(6-(1,5-dimethyl-6-oxo-1,6-dihydropyridin-3-yl)-2-((1-methyl-1H-indol-4-yl)oxy)pyrimidin-4-yl)butane-1-sulfonamide]",< 500
11,"Cc1cc(-c2cc(NS(=O)(=O)C(C)C)nc(Oc3cccc4c3ccn4C)n2)cn(C)c1=O [Example 76, N-(6-(1,5-dimethyl-6-oxo-1,6-dihydropyridin-3-yl)-2-((1-methyl-1H-indol-4-yl)oxy)pyrimidin-4-yl)propane-2-sulfonamide]",< 500
12,"Cc1cc(-c2cc(NC(=O)CC(C)C)nc(Oc3ccc(F)cc3F)n2)cn(C)c1=O [Example 77, N-(2-(2,4-difluorophenoxy)-6-(1,5-dimethyl-6-oxo-1,6-dihydropyridin-3-yl)pyrimidin-4-yl)-3-methylbutanamide]",500 to 5000
13,"COCCS(=O)(=O)Nc1cc(-c2cc(C)c(=O)n(C)c2)nc(Oc2c(C)cccc2C)n1 [Example 78, N-(6-(1,5-dimethyl-6-oxo-1,6-dihydropyridin-3-yl)-2-(2,6-dimethylphenoxy)pyrimidin-4-yl)-2-methoxyethane-1-sulfonamide]",< 500
14,"CCCCC(=O)Nc1cc(-c2cc(C)c(=O)n(C)c2)nc(Oc2ccc(F)cc2F)n1 [Example 79, N-(2-(2,4-difluorophenoxy)-6-(1,5-dimethyl-6-oxo-1,6-dihydropyridin-3-yl)pyrimidin-4-yl)pentanamide]",< 500
15,"CCCS(=O)(=O)Nc1cc(-c2cc(C)c(=O)n(C)c2)nc(Oc2c(C)cccc2C)n1 [Example 80, N-(6-(1,5-dimethyl-6-oxo-1,6-dihydropyridin-3-yl)-2-(2,6-dimethylphenoxy)pyrimidin-4-yl)propane-1-sulfonamide]",< 500
16,"Cc1cccc(C)c1Oc1nc(NS(=O)(=O)CCCF)cc(-c2cc(C)c(=O)n(C)c2)n1 [Example 81, N-(6-(1,5-dimethyl-6-oxo-1,6-dihydropyridin-3-yl)-2-(2,6-dimethylphenoxy)pyrimidin-4-yl)-3-fluoropropane-1-sulfonamide]",< 500
17,"Cc1cccc(C)c1Oc1nc(NS(=O)(=O)CC2CC2)cc(-c2cc(C)c(=O)n(C)c2)n1 [Example 82, 1-cyclopropyl-N-(6-(1,5-dimethyl-6-oxo-1,6-dihydropyridin-3-yl)-2-(2,6-dimethylphenoxy)pyrimidin-4-yl)methanesulfonamide]",< 500
18,"Cc1cccc(C)c1Oc1nc(NS(=O)(=O)CC(C)C)cc(-c2cc(C)c(=O)n(C)c2)n1 [Example 83, N-(6-(1,5-dimethyl-6-oxo-1,6-dihydropyridin-3-yl)-2-(2,6-dimethylphenoxy)pyrimidin-4-yl)-2-methylpropane-1-sulfonamide]",< 500
19,"CCC(C)S(=O)(=O)Nc1cc(-c2cc(C)c(=O)n(C)c2)nc(Oc2c(C)cccc2C)n1 (stereo not shown) [Example 84, N-(6-(1,5-dimethyl-6-oxo-1,6-dihydropyridin-3-yl)-2-(2,6-dimethylphenoxy)pyrimidin-4-yl)butane-2-sulfonamide]",< 500
